PMC12217109, “Development of novel benzamide class I selective lysine deacetylase inhibitors as potent anticancer agents” (Journal of Enzyme Inhibition and Medicinal Chemistry, 2025)

What was measured:
HL-60 = experiment: NCI-60 cytotoxicity screen; type: cell-based; conditions: Homo sapiens, NCI-60, 48 h, leukaemia
Source text: (§1) Compounds 3–7 were submitted to the US National Cancer Institute (NIH, Bethesda, Maryland) for screening against the NCI-60 panel of human cancer cell lines, as per standard protocol.

H522 = experiment: NCI-60 cytotoxicity screen; type: cell-based; conditions: Homo sapiens, NCI-60, 48 h, NSCLC
Source text: as §1

SW620 = experiment: NCI-60 cytotoxicity screen; type: cell-based; conditions: Homo sapiens, SW-620; NCI-60, 48 h, colon
Source text: as §1

CAKI-1 = experiment: NCI-60 cytotoxicity screen; type: cell-based; conditions: Homo sapiens, NCI-60, 48 h, renal
Source text: as §1

NCI/ADR-RES = experiment: NCI-60 cytotoxicity screen; type: cell-based; conditions: Homo sapiens, NCI-60, 48 h, ovarian
Source text: as §1

UO-31 = experiment: NCI-60 cytotoxicity screen; type: cell-based; conditions: Homo sapiens, NCI-60, 48 h, renal
Source text: as §1

SNB-19 = experiment: NCI-60 cytotoxicity screen; type: cell-based; conditions: Homo sapiens, NCI-60, 48 h, CNS
Source text: as §1

SK-MEL-5 = experiment: NCI-60 cytotoxicity screen; type: cell-based; conditions: Homo sapiens, NCI-60, 48 h, melanoma
Source text: as §1

HCT116 = experiment: NCI-60 cytotoxicity screen; type: cell-based; conditions: Homo sapiens, HCT-116; NCI-60, 48 h, colon
Source text: as §1

KM12 = experiment: NCI-60 cytotoxicity screen; type: cell-based; conditions: Homo sapiens, NCI-60, 48 h, colon
Source text: as §1

HCT15 = experiment: NCI-60 cytotoxicity screen; type: cell-based; conditions: Homo sapiens, HCT-15; NCI-60, 48 h, colon
Source text: as §1

IGROV-1 = experiment: NCI-60 cytotoxicity screen; type: cell-based; conditions: Homo sapiens, NCI-60, 48 h, ovarian
Source text: as §1

RPMI-8226 = experiment: NCI-60 cytotoxicity screen; type: cell-based; conditions: Homo sapiens, NCI-60, 48 h, leukaemia
Source text: as §1

EKVX = experiment: NCI-60 cytotoxicity screen; type: cell-based; conditions: Homo sapiens, NCI-60, 48 h, NSCLC
Source text: as §1

H460 = experiment: NCI-60 cytotoxicity screen; type: cell-based; conditions: Homo sapiens, NCI-60, 48 h, NSCLC
Source text: as §1

H23 = experiment: NCI-60 cytotoxicity screen; type: cell-based; conditions: Homo sapiens, NCI-60, 48 h, NSCLC
Source text: as §1

M14 = experiment: NCI-60 cytotoxicity screen; type: cell-based; conditions: Homo sapiens, NCI-60, 48 h, melanoma
Source text: as §1

SK-MEL-28 = experiment: NCI-60 cytotoxicity screen; type: cell-based; conditions: Homo sapiens, NCI-60, 48 h, melanoma
Source text: as §1

RXF 393 = experiment: NCI-60 cytotoxicity screen; type: cell-based; conditions: Homo sapiens, NCI-60, 48 h, renal
Source text: as §1

SNB-75 = experiment: NCI-60 cytotoxicity screen; type: cell-based; conditions: Homo sapiens, NCI-60, 48 h, CNS
Source text: as §1

LOX IMVI = experiment: NCI-60 cytotoxicity screen; type: cell-based; conditions: Homo sapiens, NCI-60, 48 h, melanoma
Source text: as §1

HS 578 T = experiment: NCI-60 cytotoxicity screen; type: cell-based; conditions: Homo sapiens, NCI-60, 48 h, breast
Source text: as §1

SR = experiment: NCI-60 cytotoxicity screen; type: cell-based; conditions: Homo sapiens, NCI-60, 48 h, leukaemia
Source text: as §1

COLO205 = experiment: NCI-60 cytotoxicity screen; type: cell-based; conditions: Homo sapiens, COLO 205; NCI-60, 48 h, colon
Source text: as §1

MCF-7 = experiment: NCI-60 cytotoxicity screen; type: cell-based; conditions: Homo sapiens, MCF7; NCI-60, 48 h, breast
Source text: as §1

U251 = experiment: NCI-60 cytotoxicity screen; type: cell-based; conditions: Homo sapiens, U-251; NCI-60, 48 h, CNS
Source text: as §1

BT 549 = experiment: NCI-60 cytotoxicity screen; type: cell-based; conditions: Homo sapiens, NCI-60, 48 h, breast
Source text: as §1

MDA-MB-435 = experiment: NCI-60 cytotoxicity screen; type: cell-based; conditions: Homo sapiens, NCI-60, 48 h, melanoma
Source text: as §1

PC-3 = experiment: NCI-60 cytotoxicity screen; type: cell-based; conditions: Homo sapiens, NCI-60, 48 h, prostate
Source text: as §1

SK-MEL-2 = experiment: NCI-60 cytotoxicity screen; type: cell-based; conditions: Homo sapiens, NCI-60, 48 h, melanoma
Source text: as §1

OVCAR-3 = experiment: NCI-60 cytotoxicity screen; type: cell-based; conditions: Homo sapiens, NCI-60, 48 h, ovarian
Source text: as §1

SF-268 = experiment: NCI-60 cytotoxicity screen; type: cell-based; conditions: Homo sapiens, NCI-60, 48 h, CNS
Source text: as §1

DU-145 = experiment: NCI-60 cytotoxicity screen; type: cell-based; conditions: Homo sapiens, NCI-60, 48 h, prostate
Source text: as §1

OVCAR-4 = experiment: NCI-60 cytotoxicity screen; type: cell-based; conditions: Homo sapiens, NCI-60, 48 h, ovarian
Source text: as §1

786-0 = experiment: NCI-60 cytotoxicity screen; type: cell-based; conditions: Homo sapiens, NCI-60, 48 h, renal
Source text: as §1

SF-295 = experiment: NCI-60 cytotoxicity screen; type: cell-based; conditions: Homo sapiens, NCI-60, 48 h, CNS
Source text: as §1

OVCAR-8 = experiment: NCI-60 cytotoxicity screen; type: cell-based; conditions: Homo sapiens, NCI-60, 48 h, ovarian
Source text: as §1

SF-539 = experiment: NCI-60 cytotoxicity screen; type: cell-based; conditions: Homo sapiens, NCI-60, 48 h, CNS
Source text: as §1

HOP-62 = experiment: NCI-60 cytotoxicity screen; type: cell-based; conditions: Homo sapiens, NCI-60, 48 h, NSCLC
Source text: as §1

UACC-62 = experiment: NCI-60 cytotoxicity screen; type: cell-based; conditions: Homo sapiens, NCI-60, 48 h, melanoma
Source text: as §1

SN12C = experiment: NCI-60 cytotoxicity screen; type: cell-based; conditions: Homo sapiens, NCI-60, 48 h, renal
Source text: as §1

A549 = experiment: NCI-60 cytotoxicity screen; type: cell-based; conditions: Homo sapiens, NCI-60, 48 h, NSCLC
Source text: as §1

ACHN = experiment: NCI-60 cytotoxicity screen; type: cell-based; conditions: Homo sapiens, NCI-60, 48 h, renal
Source text: as §1

HeLa nuclear KDACs = experiment: Fluor-de-Lys HDAC fluorometric activity assay with HeLa nuclear extract; type: biochemical; conditions: for IC50: HeLa nuclear extract, up to 20 µM, read-out: HDAC Inhibition IC50
Description: Total zinc-dependent KDAC (classes I, II and IV) activity was measured using the Fluor-de-Lys^TM HDAC fluorometric activity assay kit (BioMol, Exeter, UK), as per manufacturers protocol. Briefly, HeLa nuclear extract, potential inhibitor (5 nM–20 μM) and assay buffer were incubated in a 96-well fluorometric plate at 37 °C for 15 min. Acetylated substrate (100 μM) was added and the mixture incubated at 37 °C for a further 20 min. The developer was added and the mixture incubated at 37 °C for a further 15 min. Fluorescence was measured using a microplate reader (λex = 360 nm, λem = 460 nm). Percentage KDAC activity and thus KDAC inhibition was determined by quantification of fluorescence obtained in the presence versus absence of the respective inhibitor.

Nc1ccccc1NC(=O)c1ccc(CNC(=O)OCc2cccnc2)cc1 [Compound 1, Entinostat, reference compound]
IC50 (HL-60): 850 nM
IC50 (H522): 700 nM
IC50 (SW620): 1300 nM
IC50 (CAKI-1): 1170 nM
IC50 (NCI/ADR-RES): 2380 nM
IC50 (UO-31): 1170 nM
IC50 (SNB-19): 6340 nM
IC50 (SK-MEL-5): 740 nM
IC50 (HCT116): 800 nM
IC50 (KM12): 4310 nM
IC50 (HCT15): 8470 nM
IC50 (IGROV-1): 3950 nM
IC50 (RPMI-8226): 900 nM
IC50 (EKVX): 3260 nM
IC50 (H460): 830 nM
IC50 (H23): 3220 nM
IC50 (M14): 2350 nM
IC50 (SK-MEL-28): 660 nM
IC50 (RXF 393): 1490 nM
IC50 (SNB-75): 5070 nM
IC50 (LOX IMVI): 1060 nM
IC50 (HS 578 T): 2330 nM
IC50 (SR): 530 nM
IC50 (COLO205): 2000 nM
IC50 (MCF-7): 640 nM
IC50 (U251): 2030 nM
IC50 (BT 549): 4140 nM
IC50 (MDA-MB-435): 960 nM
IC50 (PC-3): 2790 nM
IC50 (SK-MEL-2): 1100 nM
IC50 (OVCAR-3): 1740 nM
IC50 (SF-268): 1860 nM
IC50 (DU-145): 2260 nM
IC50 (OVCAR-4): 1310 nM
IC50 (786-0): 4970 nM
IC50 (SF-295): 2560 nM
IC50 (OVCAR-8): 1030 nM
IC50 (SF-539): 3190 nM
IC50 (HOP-62): 2060 nM
IC50 (UACC-62): 280 nM
IC50 (SN12C): 9400 nM
IC50 (A549): 3280 nM
IC50 (ACHN): 2330 nM
IC50 (HeLa nuclear KDACs): 3000 ± 200 nM

C=C(CN1CCN(c2ccccc2C(F)(F)F)CC1)c1ccc(C(=O)Nc2ccccc2N)cc1 [Compound 3, N-(2-aminophenyl)-4–(3-(4–(2-(trifluoromethyl)phenyl)piperazin-1-yl)prop-1-en-2-yl)benzamide]
IC50 (HL-60): 40 nM
IC50 (H522): 1910 nM
IC50 (SW620): 3400 nM
IC50 (CAKI-1): 7960 nM
IC50 (NCI/ADR-RES): 1870 nM
IC50 (UO-31): 1000 nM
IC50 (SNB-19): 24400 nM
IC50 (SK-MEL-5): 3010 nM
IC50 (HCT116): 3090 nM
IC50 (KM12): 2040 nM
IC50 (HCT15): 4890 nM
IC50 (IGROV-1): 6030 nM
IC50 (RPMI-8226): 160 nM
IC50 (EKVX): 6700 nM
IC50 (H460): 5580 nM
IC50 (H23): 5930 nM
IC50 (M14): 4470 nM
IC50 (SK-MEL-28): 10400 nM
IC50 (RXF 393): 1670 nM
IC50 (SNB-75): 2820 nM
IC50 (LOX IMVI): 5860 nM
IC50 (HS 578 T): 12800 nM
IC50 (SR): 2360 nM
IC50 (COLO205): 11500 nM
IC50 (MCF-7): 4480 nM
IC50 (U251): 4630 nM
IC50 (BT 549): 2670 nM
IC50 (MDA-MB-435): 2720 nM
IC50 (PC-3): 1910 nM
IC50 (SK-MEL-2): 10300 nM
IC50 (OVCAR-3): 5920 nM
IC50 (SF-268): 4550 nM
IC50 (DU-145): 7520 nM
IC50 (OVCAR-4): 6530 nM
IC50 (786-0): 2360 nM
IC50 (SF-295): 5970 nM
IC50 (OVCAR-8): 3840 nM
IC50 (SF-539): 3270 nM
IC50 (HOP-62): 4760 nM
IC50 (UACC-62): 9160 nM
IC50 (SN12C): 6430 nM
IC50 (A549): 4170 nM
IC50 (ACHN): 7190 nM
IC50 (HeLa nuclear KDACs): > 20000 nM
IC20 (HeLa nuclear KDACs; concentration inhibiting HDAC activity by 20%, read-out: HDAC Inhibition IC20): 1500 ± 800 nM
